Legend:
[1] = biological target: Adenosine A2a (ADORA2A) receptor (Homo sapiens (Human), UniProt P29274); experiment: ADORA2A Receptor Binding Assay; details: radioligand binding, membrane stock
Method: ADORA1A and ADORA2A Receptor Binding Assay
2 μL of each compound (test compounds, high control compound, low control compound) was transferred into individual wells of an assay plate. Also to each individual well, 98 μL of Adenosine A1a membrane stock (for ADORA1A Receptor Binding Assay) or Adenosine A2a membrane stock (for ADORA2A Receptor Binding Assay) was dispensed, followed by 100 μL of radio-labeled ligand. Plates were then sealed, and incubated at room temperature for 1 hour (for ADORA1A Receptor Binding Assay) or 2 hours (for ADORA2A Receptor Binding Assay). Unifilter-96 GF/C filter plates were pre-soaked with 50 μL of 0.3% PEI per well for at least 30 min at room temperature. When binding assays were completed, reaction mixtures were filtered through GF/C plates using a Perkin Elmer Filtermate Harvester, and then each plate was washed 4× with cold wash buffer. Filter plates were then dried for 1 hour at 50° C. After drying, the bottom of the filter plate wells was sealed using Perkin Elmer Unifilter-96 backing seal tape. 50 μL of Perkin Elmer Microscint 20 cocktail was then added, and the top of the filter plate was then sealed using Perkin Elmer TopSeal-A sealing film. ^3H trapped on the filter was counted using a Perkin Elmer MicroBeta2 Reader. Data analysis was performed using GraphPad Prism 5 software, and the “Inhibition [% Control]” was calculated using the following equation: % Inh=(1−Background subtracted Assay value/Background subtracted HC value)*100.

[2] = biological target: Adenosine A2B (ADORA2B) receptor (Homo sapiens (Human), UniProt P29275); experiment: ADORA2B Receptor Binding Assay; details: radioligand binding, membrane stock
Method: ADORA2B Receptor Binding Assay
100 μL of Adenosine A2B membrane stock was dispensed into individual wells of an assay plate. 1 μL of each compound (test compounds, high control compound, low control compound) was then transferred into individual wells, followed by 100 μL of radio-labeled ligand. Plates were then sealed, and incubated at room temperature for 1 hour. Unifilter-96 GF/C filter plates were pre-soaked with 50 μL of 0.5% BSA per well for at least 30 min at room temperature. When binding assays were completed, reaction mixtures were filtered through GF/C plates using a Perkin Elmer Filtermate Harvester, and then each plate was washed 4× with cold wash buffer. Filter plates were then dried for 1 hour at 50° C. After drying, the bottom of the filter plate wells was sealed using Perkin Elmer Unifilter-96 backing seal tape. 50 μL of Perkin Elmer Microscint 20 cocktail was then added, and the top of the filter plate was then sealed using Perkin Elmer TopSeal-A sealing film. ^3H trapped on the filter was counted using a Perkin Elmer MicroBeta2 Reader. Data analysis was performed using GraphPad Prism 5 software, and the “Inhibition[% Control]” was calculated using the following equation: % Inh=(1−Background subtracted Assay value/Background subtracted HC value)*100.

Sequence of Adenosine A2B (ADORA2B) receptor (P29275 whole entry): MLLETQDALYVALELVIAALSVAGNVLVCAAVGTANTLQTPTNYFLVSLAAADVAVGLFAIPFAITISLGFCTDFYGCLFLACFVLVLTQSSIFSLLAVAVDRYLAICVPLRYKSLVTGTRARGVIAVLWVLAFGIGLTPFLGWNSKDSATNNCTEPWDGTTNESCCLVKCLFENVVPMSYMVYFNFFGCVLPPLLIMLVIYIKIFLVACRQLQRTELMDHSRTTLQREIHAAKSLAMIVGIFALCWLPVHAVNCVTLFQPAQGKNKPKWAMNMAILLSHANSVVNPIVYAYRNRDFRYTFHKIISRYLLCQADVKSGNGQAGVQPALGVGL
Sequence of Adenosine A2a (ADORA2A) receptor (P29274 whole entry): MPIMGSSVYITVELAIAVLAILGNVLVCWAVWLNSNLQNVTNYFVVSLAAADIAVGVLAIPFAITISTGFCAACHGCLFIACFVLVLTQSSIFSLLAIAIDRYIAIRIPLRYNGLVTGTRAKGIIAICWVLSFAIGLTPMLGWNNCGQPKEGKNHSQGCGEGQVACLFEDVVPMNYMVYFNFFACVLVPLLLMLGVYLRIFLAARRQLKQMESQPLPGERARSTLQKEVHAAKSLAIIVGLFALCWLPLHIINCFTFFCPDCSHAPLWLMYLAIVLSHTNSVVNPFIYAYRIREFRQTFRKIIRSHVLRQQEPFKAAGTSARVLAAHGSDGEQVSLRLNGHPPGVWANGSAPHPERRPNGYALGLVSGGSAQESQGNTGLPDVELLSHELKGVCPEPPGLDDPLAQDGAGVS

Row | Structure (SMILES) | IC50 [1] [nM] | IC50 [2] [nM]
1 | Cc1ccc(-c2nc(NC(=O)C3CC3)cc3nc(C4CC4)nn23)o1 [Compound 62, N-[2-cyclopropyl-5-(5-methylfuran-2-yl)-[1,2,4]triazolo[1,5-c]pyrimidin-7-yl]cyclopropanecarboxamide] | < 10 | 10 to 100
2 | CC(=O)Nc1cc2nc(C3CCCC3)nn2c(-c2ccc(C)o2)n1 [Compound 65, N-[2-cyclopentyl-5-(5-methylfuran-2-yl)-[1,2,4]triazolo[1,5-c]pyrimidin-7-yl]acetamide] | < 10 | 10 to 100
3 | Cc1ccc(-c2nc(NC(=O)C3CC3)cc3nc(-c4ccco4)nn23)o1 [Compound 67, N-[2-(furan-2-yl)-5-(5-methylfuran-2-yl)-[1,2,4]triazolo[1,5-c]pyrimidin-7-yl]cyclopropanecarboxamide] | < 10 | 10 to 100
4 | O=C(Nc1cc2nc(C(F)(F)F)nn2c(-c2ccco2)n1)C1CC1 [Compound 68, N-[5-(furan-2-yl)-2-(trifluoromethyl)-[1,2,4]triazolo[1,5-c]pyrimidin-7-yl]cyclopropanecarboxamide] | < 10 | < 10
5 | Cc1nc2cc(NC(=O)C3CC3)nc(-c3ccc(C(F)(F)F)o3)n2n1 [Compound 69, N-[2-methyl-5-[5-(trifluoromethyl)furan-2-yl]-[1,2,4]triazolo[1,5-c]pyrimidin-7-yl]cyclopropanecarboxamide] | < 10 | 10 to 100
6 | CC(=O)Nc1cc2nc(C)nn2c(-c2cnn(C)c2)n1 [Compound 71, N-[2-methyl-5-(1-methylpyrazol-4-yl)-[1,2,4]triazolo[1,5-c]pyrimidin-7-yl]acetamide] | > 1000 | > 1000
7 | Cc1nc2cc(NC(=O)C3CC3)nc(-c3ccoc3)n2n1 [Compound 73, N-[5-(furan-3-yl)-2-methyl-[1,2,4]triazolo[1,5-c]pyrimidin-7-yl]cyclopropanecarboxamide] | 10 to 100 | 100 to 1000
8 | Cc1nc2c(Cl)c(N)nc(-c3ccccn3)n2n1 [Compound 74, 8-chloro-2-methyl-5-pyridin-2-yl-[1,2,4]triazolo[1,5-c]pyrimidin-7-amine] | 10 to 100 | > 1000
9 | Cc1nc2c(Cl)c(N)nc(-c3ccc(Cl)cc3)n2n1 [Compound 77, 8-chloro-5-(4-chlorophenyl)-2-methyl-[1,2,4]triazolo[1,5-c]pyrimidin-7-amine] | 10 to 100 | 10 to 100
10 | Cc1nc2c(Cl)c(N)nc(-c3ccc(F)cc3)n2n1 [Compound 80, 8-chloro-5-(4-fluorophenyl)-2-methyl-[1,2,4]triazolo[1,5-c]pyrimidin-7-amine] | 10 to 100 | 100 to 1000
11 | Cc1cc2c(nc(-c3ccco3)n3nc(C(C)C)nc23)[nH]1 [Compound 81, 7-(furan-2-yl)-11-methyl-4-propan-2-yl-3,5,6,8,10-pentazatricyclo[7.3.0.0^2,6]dodeca-1(9),2,4,7,11-pentaene] | < 10 | 10 to 100
12 | Cc1cc2c(nc(-c3ccco3)n3nc(C(F)(F)F)nc23)[nH]1 [Compound 82, 7-(furan-2-yl)-11-methyl-4-(trifluoromethyl)-3,5,6,8,10-pentazatricyclo[7.3.0.0^2,6]dodeca-1(9),2,4,7,11-pentaene] | < 10 | < 10
13 | Cc1nc2c(Br)c(N)nc(-c3ccc(F)cc3)n2n1 [Compound 83, 8-bromo-5-(4-fluorophenyl)-2-methyl-[1,2,4]triazolo[1,5-c]pyrimidin-7-amine] | 10 to 100 | 100 to 1000
14 | Nc1nc(-c2ccccc2)n2nc(C(F)(F)F)nc2c1Cl [Compound 87, 8-chloro-5-phenyl-2-(trifluoromethyl)-[1,2,4]triazolo[1,5-c]pyrimidin-7-amine] | < 10 | 10 to 100

Second part, the compound after the results:

Row | IC50 [1] [nM] | IC50 [2] [nM] | Structure (SMILES)
15 | < 10 | 10 to 100 | CC(=O)Nc1cc2nc(C3CCC3)nn2c(-c2ccc(C)o2)n1 [Compound 63, N-[2-cyclobutyl-5-(5-methylfuran-2-yl)-[1,2,4]triazolo[1,5-c]pyrimidin-7-yl]acetamide]
16 | < 10 | 10 to 100 | Cc1ccc(-c2nc(NC(=O)C3CC3)cc3nc(C4CCC4)nn23)o1 [Compound 64, N-[2-cyclobutyl-5-(5-methylfuran-2-yl)-[1,2,4]triazolo[1,5-c]pyrimidin-7-yl]cyclopropanecarboxamide]
17 | < 10 | 10 to 100 | Cc1ccc(-c2nc(NC(=O)C3CC3)cc3nc(C4CCCC4)nn23)o1 [Compound 66, N-[2-cyclopentyl-5-(5-methylfuran-2-yl)-[1,2,4]triazolo[1,5-c]pyrimidin-7-yl]cyclopropanecarboxamide]
18 | 100 to 1000 | > 1000 | Cc1nc2cc(NC(=O)C3CC3)nc(-c3cnn(C)c3)n2n1 [Compound 70, N-[2-methyl-5-(1-methylpyrazol-4-yl)-[1,2,4]triazolo[1,5-c]pyrimidin-7-yl]cyclopropanecarboxamide]
19 | 100 to 1000 | > 1000 | CC(=O)Nc1cc2nc(C)nn2c(-c2ccoc2)n1 [Compound 72, N-[5-(furan-3-yl)-2-methyl-[1,2,4]triazolo[1,5-c]pyrimidin-7-yl]acetamide]
20 | < 10 | 10 to 100 | Cc1cc2c(nc(-c3ccc(C)o3)n3nc(C(C)C)nc23)[nH]1 [Compound 75, 11-methyl-7-(5-methylfuran-2-yl)-4-propan-2-yl-3,5,6,8,10-pentazatricyclo[7.3.0.0^2,6]dodeca-1(9),2,4,7,11-pentaene]
21 | 10 to 100 | > 1000 | Cc1cccc(-c2nc(N)c(Cl)c3nc(C)nn23)n1 [Compound 76, 8-chloro-2-methyl-5-(6-methylpyridin-2-yl)-[1,2,4]triazolo[1,5-c]pyrimidin-7-amine]
22 | < 10 | 10 to 100 | Cc1nc2c(Cl)c(N)nc(-c3cccc(Cl)c3)n2n1 [Compound 78, 8-chloro-5-(3-chlorophenyl)-2-methyl-[1,2,4]triazolo[1,5-c]pyrimidin-7-amine]
23 | 10 to 100 | 100 to 1000 | Cc1nc2c(Cl)c(N)nc(-c3ccncc3)n2n1 [Compound 79, 8-chloro-2-methyl-5-pyridin-4-yl-[1,2,4]triazolo[1,5-c]pyrimidin-7-amine]
24 | > 1000 | > 1000 | Cc1nc2c(Cl)c(N)nc(-c3ccccc3Cl)n2n1 [Compound 84, 8-chloro-5-(2-chlorophenyl)-2-methyl-[1,2,4]triazolo[1,5-c]pyrimidin-7-amine]
25 | < 10 | < 10 | Cc1nc2cc(NC(=O)C3CC3)nc(-c3ccc(F)o3)n2n1 [Compound 85, N-[5-(5-fluorofuran-2-yl)-2-methyl-[1,2,4]triazolo[1,5-c]pyrimidin-7-yl]cyclopropanecarboxamide]
26 | < 10 | 10 to 100 | CC(C)c1nc2c(Cl)c(N)nc(-c3ccccc3)n2n1 [Compound 86, 8-chloro-5-phenyl-2-propan-2-yl-[1,2,4]triazolo[1,5-c]pyrimidin-7-amine]
27 | < 10 | < 10 | Cc1cc2c(nc(-c3ccc(C)o3)n3nc(C(F)(F)F)nc23)[nH]1 [Compound 88, 11-methyl-7-(5-methylfuran-2-yl)-4-(trifluoromethyl)-3,5,6,8,10-pentazatricyclo[7.3.0.0^2,6]dodeca-1(9),2,4,7,11-pentaene]

Source: patent publication US11718622B2, “Heterocyclic adenosine receptor antagonists” (Exelixis, Inc., priority 2020, dated 2023)
